Among the data in DBAASP are MIC values, retold here.

Molecules are shown by their SMILES. Values after ≈ are worked out from the molar mass of the structure shown.

For orientation: MIC means the least concentration at which growth counts as inhibited. Higher therefore signals a need for much substance.

Holding throughout (test): ≥ marks a high value that may be exact or a test limit, other limits are often not marked, values filed in µg/mL are converted to µM
Test [1] concerns Acinetobacter baumannii CCARM 12005.
The subject of test [2] is Acinetobacter baumannii CCARM 12035.
The subject of test [3] is Acinetobacter baumannii CCARM 12036.
The test system of test [4] is Acinetobacter baumannii CCARM 12037.
In test [5] the test system is Bacillus subtilis KCTC 1021.
Test [6] deals with Bacillus subtilis KCTC 1022.
In test [7] the test system is Bacillus subtilis KCTC 3068.
The subject of test [8] is Escherichia coli CCARM 1229.
The test system of test [9] is Escherichia coli CCARM 1238.
In test [10] the test system is Escherichia coli KCTC 1682.
Test [11] deals with Escherichia coli KCTC 2571.
For test [12], the system named is Escherichia coli KCTC 2593.
In test [13] the test system is Pseudomonas aeruginosa CCARM 2002.
The test system of test [14] is Pseudomonas aeruginosa CCARM 2003.
In test [15] the test system is Pseudomonas aeruginosa CCARM 2095.
Test [16] relates to Pseudomonas aeruginosa CCARM 2163.
In test [17] the test system is Pseudomonas aeruginosa KCTC 1637.
In test [18] the test system is Pseudomonas aeruginosa KCTC 2004.
Test [19] relates to Pseudomonas aeruginosa KCTC 2513.
Test [20] concerns Salmonella typhimurium CCARM 8003.
In test [21] the test system is Salmonella typhimurium CCARM 8007.
Test [22] has as its system Salmonella typhimurium CCARM 8009.
Test [23] relates to Salmonella typhimurium KCTC 1926.
For test [24], the system named is Staphylococcus aureus CCARM 3089.
For test [25], the system named is Staphylococcus aureus CCARM 3090.
Test [26] concerns Staphylococcus aureus CCARM 3108.
The test system of test [27] is Staphylococcus aureus CCARM 3114.
The test system of test [28] is Staphylococcus aureus CCARM 3126.
Test [29] has as its system Staphylococcus aureus KCTC 1621.
In test [30] the test system is Staphylococcus aureus KCTC 1916.
Test [31] has as its system Staphylococcus aureus KCTC 3881.
Test [32] deals with Staphylococcus epidermidis KCTC 1917.
The test system of test [33] is Candida albicans ATCC 200955.
In test [34] the test system is Enterococcus faecium ATCC 700221.
Test [35] has as its system Escherichia coli ATCC 25922.
Test [36] deals with Pseudomonas aeruginosa ATCC 27853.
The test system of test [37] is Staphylococcus aureus ATCC 33591.
For test [38], the system named is Salmonella enterica subsp. enterica serovar Typhi DMST 22842.
The test system of test [39] is Staphylococcus aureus ATCC 25923.
Test [40] concerns Staphylococcus epidermidis ATCC 12228.

Regarding `CC[C@H](C)[C@H](NC(=O)CNC(=O)[C@H](CCCN=C(N)N)NC(=O)[C@H](Cc1ccccc1)NC(=O)[C@@H](NC(=O)[C@H](Cc1cnc[nH]1)NC(=O)[C@H](Cc1cnc[nH]1)NC(=O)[C@H](C)NC(=O)[C@@H](N)Cc1ccccc1)[C@@H](C)CC)C(=O)N[C@H](C(=O)N[C@@H](Cc1cnc[nH]1)C(=O)N[C@H](C(=O)NCC(=O)N[C@@H](CCCCN)C(=O)N[C@H](C(=O)N[C@H](C(=O)N[C@@H](Cc1cnc[nH]1)C(=O)N[C@@H](CCCN=C(N)N)C(=O)N[C@@H](CC(C)C)C(=O)N[C@H](C(=O)N[C@H](C(=O)NCC(=O)O)[C@@H](C)O)C(C)C)[C@@H](C)CC)[C@@H](C)O)C(C)C)C(C)C` [FAHHIFRGIVHVGKTIHRLVTG], the minimum inhibitory concentration (MIC) is 4 µM (≈ 9.98 µg/mL) in [1]; 4 µM (≈ 9.98 µg/mL) in test [2]; 4 µM (≈ 9.98 µg/mL) in test [3]; 4 µM (≈ 9.98 µg/mL) in [4]; 8 µM (≈ 20 µg/mL) in [5]; 1 µM (≈ 2.5 µg/mL) in test [6]. Besides, the minimum inhibitory concentration (MIC) is 4 µM (≈ 9.98 µg/mL) in [7]; 16 µM (≈ 39.9 µg/mL) in test [8]; 16 µM (≈ 39.9 µg/mL) in test [9]; 2 µM (≈ 4.99 µg/mL) in test [10]; 2 µM (≈ 4.99 µg/mL) in [11]; 2 µM (≈ 4.99 µg/mL) in test [12]. Moreover, the MIC in test [13] stood at 4 µM (≈ 9.98 µg/mL); in [14], 4 µM (≈ 9.98 µg/mL); in [15], 4 µM (≈ 9.98 µg/mL); in [16] it was 4 µM (≈ 9.98 µg/mL); in [17], 4 µM (≈ 9.98 µg/mL); in test [18] it was 8 µM (≈ 20 µg/mL). Also, the MIC in test [19] was 8 µM (≈ 20 µg/mL); in test [20], at least 32 µM; in test [21] it was 16 µM (≈ 39.9 µg/mL); in [22], 16 µM (≈ 39.9 µg/mL); in test [23] it was 16 µM (≈ 39.9 µg/mL); in test [24], 16 µM (≈ 39.9 µg/mL). The minimum inhibitory concentration (MIC) in [25] turned out to be 16 µM (≈ 39.9 µg/mL); in test [26], 16 µM (≈ 39.9 µg/mL); in [27], 16 µM (≈ 39.9 µg/mL); in test [28], 16 µM (≈ 39.9 µg/mL); in [29], 4 µM (≈ 9.98 µg/mL); in [30], 1 µM (≈ 2.5 µg/mL). Moreover, the MIC in test [31] and in [32] was 2 µM (≈ 4.99 µg/mL) each time.

As for `CC[C@H](C)[C@H](NC(=O)CNC(=O)[C@H](CCCN=C(N)N)NC(=O)[C@H](Cc1ccccc1)NC(=O)[C@@H](NC(=O)[C@H](Cc1cnc[nH]1)NC(=O)[C@H](Cc1cnc[nH]1)NC(=O)[C@H](CCCCN)NC(=O)[C@@H](N)Cc1ccccc1)[C@@H](C)CC)C(=O)N[C@@H](CCCCN)C(=O)N[C@@H](Cc1cnc[nH]1)C(=O)N[C@H](C(=O)NCC(=O)N[C@@H](CCCCN)C(=O)N[C@H](C(=O)N[C@H](C(=O)N[C@@H](Cc1cnc[nH]1)C(=O)N[C@@H](CCCN=C(N)N)C(=O)N[C@@H](CC(C)C)C(=O)N[C@H](C(=O)N[C@H](C(=O)NCC(=O)O)[C@@H](C)O)C(C)C)[C@@H](C)CC)[C@@H](C)O)C(C)C` [FKHHIFRGIKHVGKTIHRLVTG], the minimal inhibitory concentration (MIC) in [1] is 2 µM (≈ 5.16 µg/mL); in test [2], 2 µM (≈ 5.16 µg/mL); in test [3] it was 2 µM (≈ 5.16 µg/mL); in test [4], 2 µM (≈ 5.16 µg/mL); in test [5] it was 8 µM (≈ 20.7 µg/mL); in test [6], 4 µM (≈ 10.3 µg/mL). Also, the minimum inhibitory concentration (MIC) worked out at 2 µM (≈ 5.16 µg/mL) in test [7]; 8 µM (≈ 20.7 µg/mL) in test [8]; 8 µM (≈ 20.7 µg/mL) in test [9]; 1 µM (≈ 2.58 µg/mL) in [10]; 4 µM (≈ 10.3 µg/mL) in test [11]; 4 µM (≈ 10.3 µg/mL) in test [12]. Also, the MIC stood at 2 µM (≈ 5.16 µg/mL) in test [13]; 2 µM (≈ 5.16 µg/mL) in [14]; 2 µM (≈ 5.16 µg/mL) in [15]; 2 µM (≈ 5.16 µg/mL) in [16]; 1 µM (≈ 2.58 µg/mL) in test [17]; 8 µM (≈ 20.7 µg/mL) in test [18]. Further, the MIC was determined as 8 µM (≈ 20.7 µg/mL) in test [19]; 16 µM (≈ 41.3 µg/mL) in test [20]; 8 µM (≈ 20.7 µg/mL) in test [21]; 8 µM (≈ 20.7 µg/mL) in [22]; 2 µM (≈ 5.16 µg/mL) in [23]; 8 µM (≈ 20.7 µg/mL) in [24]. Also, the MIC turned out to be 8 µM (≈ 20.7 µg/mL) in test [25]; 8 µM (≈ 20.7 µg/mL) in test [26]; 8 µM (≈ 20.7 µg/mL) in [27]; 8 µM (≈ 20.7 µg/mL) in [28]; 2 µM (≈ 5.16 µg/mL) in test [29]; 4 µM (≈ 10.3 µg/mL) in test [30]. Moreover, the minimum inhibitory concentration (MIC) in [31] and in test [32] was 4 µM (≈ 10.3 µg/mL) in each case.

As to `CC[C@H](C)[C@H](NC(=O)[C@H](Cc1ccccc1)NC(=O)[C@H](CCCCN)NC(=O)[C@H](CC(C)C)NC(=O)[C@H](CC(C)C)NC(=O)CN)C(=O)N[C@@H](CCCCN)C(=O)N[C@@H](Cc1c[nH]c2ccccc12)C(=O)N[C@@H](CC(C)C)C(=O)N[C@@H](CC(C)C)C(N)=O` [GLLKFIKWLL], the minimum inhibitory concentration (MIC) was at least 47.4 µM in [33]; 0.8 µM (≈ 0.984 µg/mL) in test [34]; 22.1 µM (≈ 27.2 µg/mL) in test [35]; 256 µM (≈ 315 µg/mL) in test [36]; 7.4 µM (≈ 9.1 µg/mL) in test [37].

With `CC[C@H](C)[C@H](NC(=O)[C@H](CCCCN)NC(=O)[C@H](CCCCN)NC(=O)[C@H](CC(C)C)NC(=O)[C@H](CC(C)C)NC(=O)CN)C(=O)N[C@@H](CCCCN)C(=O)N[C@@H](Cc1c[nH]c2ccccc12)C(=O)N[C@@H](CC(C)C)C(=O)N[C@@H](CC(C)C)C(N)=O` [GLLKKIKWLL], the MIC in [33] was at least 47.4 µM; in test [34], 22.1 µM (≈ 26.8 µg/mL); in [35], 12.5 µM (≈ 15.1 µg/mL); in test [36], 28.4 µM (≈ 34.4 µg/mL); in test [37], 28.4 µM (≈ 34.4 µg/mL).

In the case of `CC(C)[C@H](NC(=O)CNC(=O)[C@@H](N)CC(N)=O)C(=O)N[C@@H](CCC(N)=O)C(=O)N1CCC[C@H]1C(=O)N[C@@H](CCCCN)C(=O)N[C@@H](Cc1ccc(O)cc1)C(=O)N[C@@H](CCCN=C(N)N)C(=O)N[C@@H](Cc1c[nH]c2ccccc12)C(=O)N[C@@H](Cc1c[nH]c2ccccc12)C(=O)N[C@@H](CCCN=C(N)N)C(=O)N[C@@H](Cc1c[nH]c2ccccc12)C(=O)N[C@@H](Cc1c[nH]c2ccccc12)C(=O)N[C@@H](CCCN=C(N)N)C(=O)N[C@@H](CCCN=C(N)N)C(=O)N[C@@H](Cc1c[nH]c2ccccc12)C(=O)N[C@@H](Cc1c[nH]c2ccccc12)C(=O)N[C@@H](Cc1c[nH]c2ccccc12)C(=O)N[C@@H](Cc1c[nH]c2ccccc12)C(N)=O` [NGVQPKYRWWRWWRRWWWW], the MIC in test [35] is over 31.2 µM; in test [36], over 31.2 µM; in test [38], 31.2 µM (≈ 91 µg/mL); in [39], over 31.2 µM; in test [40] it was 31.2 µM (≈ 91 µg/mL).
